# Patent publication US8148422B2, “Sulfonamides as TRPM8 modulators” (Janssen Pharmaceutica, NV, priority 2008, dated 2012)
# pIC50: −log10 of the molar value.
# Target: T1, canine TRPM8 (Canis lupus familiaris, UniProt Q1A7N1)
# T1 construct: expressed in transfected cells
# Assay: In vitro canine TRPM8 functional assay (Ca2+-sensitive fluorescent dye, FLIPR or FDSS, icilin challenge)
# Format: cell-based
# Conditions: HEK293 cells stably expressing canine TRPM8; for inhibition at 0.2 µM: 0.2 μM compound, icilin challenge; for pIC50: icilin at approx. 80% maximal response, eight-point dose-response, single determinations unless otherwise noted, read-out: IC50
# Procedure: The functional activity of compounds of the formula (I) was determined by measuring changes in intracellular calcium concentration using a Ca^2+-sensitive fluorescent dye. The changes in fluorescent signal were monitored by a fluorescence plate reader, either a FLIPR™ (Molecular Devices) or FDSS (Hamamatsu).
# At 24 hrs prior to assay, HEK293 cells stably expressing canine TRPM8 were seeded in culture medium in black wall, clear-base poly-D-lysine coated 384-well plates (BD Biosciences, NJ, USA) and grown overnight in 5% CO2 at 37° C. On assay day, growth media was removed and cells were loaded with Calcium 3 Dye (Molecular Devices) for 35 min at 37° C., under 5% CO2 and then for 25 min at room temperature and atmosphere. Subsequently, cells were tested for agonist-induced increases in intracellular Ca^2+ levels using FLIPR™ or FDSS. Cells were challenged with a compound of the Formula (I) (at varying concentrations) and intracellular Ca^2+ was measured for 5 min prior to the addition of icilin to all wells to achieve a final concentration that produces approximately an 80% maximal response. EC50 or IC50 values for compounds of the present invention were determined from eight-point dose-response studies. Curves were generated using the average of quadruplicate wells for each data point.
# T1 sequence (Q1A7N1 1-1104): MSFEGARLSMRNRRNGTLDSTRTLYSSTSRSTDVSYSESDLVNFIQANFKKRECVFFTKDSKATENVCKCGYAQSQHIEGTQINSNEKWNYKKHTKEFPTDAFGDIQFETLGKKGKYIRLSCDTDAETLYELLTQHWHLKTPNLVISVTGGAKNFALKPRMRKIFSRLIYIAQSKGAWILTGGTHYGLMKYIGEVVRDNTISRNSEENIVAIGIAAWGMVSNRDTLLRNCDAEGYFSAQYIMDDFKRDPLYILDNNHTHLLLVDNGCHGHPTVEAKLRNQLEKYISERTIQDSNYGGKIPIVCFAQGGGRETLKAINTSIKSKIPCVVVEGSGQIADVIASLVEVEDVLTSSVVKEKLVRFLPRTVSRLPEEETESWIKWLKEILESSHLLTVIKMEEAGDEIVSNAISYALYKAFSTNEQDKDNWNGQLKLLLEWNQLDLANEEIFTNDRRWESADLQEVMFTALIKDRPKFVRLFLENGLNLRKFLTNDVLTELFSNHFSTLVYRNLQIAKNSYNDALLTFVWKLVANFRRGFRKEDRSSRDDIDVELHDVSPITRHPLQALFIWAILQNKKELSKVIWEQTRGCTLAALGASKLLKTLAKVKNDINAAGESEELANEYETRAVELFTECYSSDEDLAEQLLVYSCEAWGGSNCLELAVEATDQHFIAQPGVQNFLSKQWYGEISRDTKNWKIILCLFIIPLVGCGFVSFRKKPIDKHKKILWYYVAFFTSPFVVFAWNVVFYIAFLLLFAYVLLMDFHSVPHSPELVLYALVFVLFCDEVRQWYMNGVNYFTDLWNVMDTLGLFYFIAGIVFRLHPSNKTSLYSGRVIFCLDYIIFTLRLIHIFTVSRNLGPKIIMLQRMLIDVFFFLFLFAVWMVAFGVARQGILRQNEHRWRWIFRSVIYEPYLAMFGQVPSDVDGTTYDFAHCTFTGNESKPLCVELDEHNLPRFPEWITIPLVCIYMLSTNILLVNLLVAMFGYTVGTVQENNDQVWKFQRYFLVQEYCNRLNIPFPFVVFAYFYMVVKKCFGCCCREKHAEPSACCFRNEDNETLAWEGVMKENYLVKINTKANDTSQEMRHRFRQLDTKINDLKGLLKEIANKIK
SMILES,inhibition at 0.2 µM,pIC50
"CCCN(CCC)CCS(=O)(=O)N(Cc1ccc(OC(F)(F)F)cc1)c1cc2ccccc2s1 [Cpd 1, N-(Benzo[b]thiophen-2-yl)-N-(4-trifluoromethoxy-benzyl)-2-(di-propylamino)ethylsulfonamide]",78%,6.94
"O=S(=O)(CCN1CCCCC1)N(Cc1ccc(OC(F)(F)F)cc1)c1cc2ccccc2s1 [Cpd 2, N-(Benzo[b]thiophen-2-yl)-N-(4-trifluoromethoxy-benzyl)-2-(piperidin-1-yl)ethylsulfonamide]",92%,7.48
"O=S(=O)(CCN1CCCCC1)N(Cc1ccc(OC(F)(F)F)cc1)c1sc2ccccc2c1Cl [Cpd 3, N-(3-Chlorobenzo[b]thiophen-2-yl)-N-(4-trifluoromethoxy-benzyl)-2-(piperidin-1-yl)ethylsulfonamide]",97%,7.52
"Cc1c(N(Cc2ccc(OC(F)(F)F)cc2)S(=O)(=O)CCN2CCCCC2)sc2ccccc12 [Cpd 18, N-(3-Methylbenzo[b]thiophen-2-yl)-N-(4-trifluoromethoxy-benzyl)-2-(piperidin-1-yl)ethylsulfonamide]",99%,7.59
"Cc1c(N(Cc2ccc(OC(F)(F)F)cc2)S(=O)(=O)CCN2CCC(C)CC2)sc2ccccc12 [Cpd 19, N-(3-Methylbenzo[b]thiophen-2-yl)-N-(4-trifluoromethoxy-benzyl)-2-(4-methylpiperidin-1-yl)ethylsulfonamide]",99%,7.47
"Cc1c(N(Cc2ccc(OC(F)(F)F)cc2)S(=O)(=O)CCN2CCC(O)CC2)sc2ccccc12 [Cpd 20, N-(3-Methylbenzo[b]thiophen-2-yl)-N-(4-trifluoromethoxy-benzyl)-2-(4-hydroxypiperidin-1-yl)ethylsulfonamide]",99%,7.60
"Cc1c(N(Cc2ccc(OC(F)(F)F)cc2)S(=O)(=O)CCN2CC(C)CC(C)C2)sc2ccccc12 (stereo not drawn) [Cpd 21, N-(3-Methylbenzo[b]thiophen-2-yl)-N-(4-trifluoromethoxy-benzyl)-2-(3,5-dimethylpiperidin-1-yl)ethylsulfonamide]",100%,7.28
"Cc1c(N(Cc2ccc(OC(F)(F)F)cc2)S(=O)(=O)CCN2CCC(CO)CC2)sc2ccccc12 [Cpd 23, N-(3-Methylbenzo[b]thiophen-2-yl)-N-(4-trifluoromethoxy-benzyl)-2-(4-hydroxymethylpiperidin-1-yl)ethylsulfonamide]",97%,7.36
"Cc1c(N(Cc2ccc(OC(F)(F)F)cc2)S(=O)(=O)CCN2CCCC(C(F)(F)F)C2)sc2ccccc12 (stereo not drawn) [Cpd 24, N-(3-Methylbenzo[b]thiophen-2-yl)-N-(4-trifluoromethoxy-benzyl)-2-(3-trifluoromethylpiperidin-1-yl)ethylsulfonamide]",99%,7.57
"Cc1c(N(Cc2ccc(OC(F)(F)F)cc2)S(=O)(=O)CCN2CCNCC2)sc2ccccc12 [Cpd 26, N-(3-Methylbenzo[b]thiophen-2-yl)-N-(4-trifluoromethoxy-benzyl)-2-(piperazin-1-yl)ethylsulfonamide]",23%,–

# The remaining lines, values ahead:
inhibition at 0.2 µM,pIC50,SMILES
98%,7.62,"CCCN(CCC)CCS(=O)(=O)N(Cc1ccc(OC(F)(F)F)cc1)c1sc2ccccc2c1Cl [Cpd 4, N-(3-Chlorobenzo[b]thiophen-2-yl)-N-(4-trifluoromethoxy-benzyl)-2-(di-propylamino)ethylsulfonamide]"
101%,7.66,"CCCN(CCC)CCS(=O)(=O)N(Cc1ccc(OC(F)(F)F)cc1)c1sc2ccccc2c1Br [Cpd 5, N-(3-Bromobenzo[b]thiophen-2-yl)-N-(4-trifluoromethoxy-benzyl)-2-(di-propylamino)ethylsulfonamide]"
99%,8.05,"CCCN(CCC)CCS(=O)(=O)N(Cc1ccc(OC(F)(F)F)cc1)c1sc2ccccc2c1C [Cpd 6, N-(3-Methylbenzo[b]thiophen-2-yl)-N-(4-trifluoromethoxy-benzyl)-2-(di-propylamino)ethylsulfonamide]"
99%,7.54,"CCCN(C)CCS(=O)(=O)N(Cc1ccc(OC(F)(F)F)cc1)c1sc2ccccc2c1C [Cpd 7, N-(3-Methylbenzo[b]thiophen-2-yl)-N-(4-trifluoromethoxy-benzyl)-2-(methyl-propylamino)ethylsulfonamide]"
94%,7.30,"Cc1c(N(Cc2ccc(OC(F)(F)F)cc2)S(=O)(=O)CCN(C)C(C)C)sc2ccccc12 [Cpd 8, N-(3-Methylbenzo[b]thiophen-2-yl)-N-(4-trifluoromethoxy-benzyl)-2-(methyl-isopropylamino)ethylsulfonamide]"
101%,7.72,"CCN(CC)CCS(=O)(=O)N(Cc1ccc(OC(F)(F)F)cc1)c1sc2ccccc2c1C [Cpd 9, N-(3-Methylbenzo[b]thiophen-2-yl)-N-(4-trifluoromethoxy-benzyl)-2-(diethylamino)ethylsulfonamide]"
98%,7.54,"Cc1c(N(Cc2ccc(OC(F)(F)F)cc2)S(=O)(=O)CCN(C)CCO)sc2ccccc12 [Cpd 10, N-(3-Methylbenzo[b]thiophen-2-yl)-N-(4-trifluoromethoxy-benzyl)-2-(methyl-2-hydroxyethylamino)ethylsulfonamide]"
100%,7.66,"Cc1c(N(Cc2ccc(OC(F)(F)F)cc2)S(=O)(=O)CCN(C)CC(C)C)sc2ccccc12 [Cpd 11, N-(3-Methylbenzo[b]thiophen-2-yl)-N-(4-trifluoromethoxy-benzyl)-2-(methyl-isobutylamino)ethylsulfonamide]"
96%,7.37,"CCCCN(C)CCS(=O)(=O)N(Cc1ccc(OC(F)(F)F)cc1)c1sc2ccccc2c1C [Cpd 12, N-(3-Methylbenzo[b]thiophen-2-yl)-N-(4-trifluoromethoxy-benzyl)-2-(methyl-butylamino)ethylsulfonamide]"
72%,7.13,"Cc1c(N(Cc2ccc(OC(F)(F)F)cc2)S(=O)(=O)CCNCCC(F)(F)F)sc2ccccc12 [Cpd 13, N-(3-Methylbenzo[b]thiophen-2-yl)-N-(4-trifluoromethoxy-benzyl)-2-(3,3,3-trifluoropropylamino)ethylsulfonamide]"
100%,7.66,"CCCCN(CCCC)CCS(=O)(=O)N(Cc1ccc(OC(F)(F)F)cc1)c1sc2ccccc2c1C [Cpd 15, N-(3-Methylbenzo[b]thiophen-2-yl)-N-(4-trifluoromethoxy-benzyl)-2-(dibutylamino)ethylsulfonamide]"
98%,7.66,"Cc1c(N(Cc2ccc(OC(F)(F)F)cc2)S(=O)(=O)CCN(C)CCc2ccccc2)sc2ccccc12 [Cpd 17, N-(3-Methylbenzo[b]thiophen-2-yl)-N-(4-trifluoromethoxy-benzyl)-2-(methyl-2-phenylethylamino)ethylsulfonamide]"
99%,7.89,"Cc1c(N(Cc2ccc(OC(F)(F)F)cc2)S(=O)(=O)CCN2[C@H](C)CCC[C@@H]2C)sc2ccccc12 [Cpd 22, N-(3-Methylbenzo[b]thiophen-2-yl)-N-(4-trifluoromethoxy-benzyl)-2-(cis-2,6-dimethylpiperidin-1-yl)ethylsulfonamide]"
